Data: ChEMBL document CHEMBL5303573, “Mapping human microbiome drug metabolism by gut bacteria and their genes” (Nature, 2019)

What was measured:
[1] = The drug is tested on Collinsella intestinalis strain: DSM13280 for biotransformation. The drug concentrations were measured before and after a 12-h incubation by liquid-chromatography-coupled mass spectrometry (LC–MS); details: 2 µM
[2] = The drug is tested on Bacteroides dorei strain: DSM17855 for biotransformation. The drug concentrations were measured before and after a 12-h incubation by liquid-chromatography-coupled mass spectrometry (LC–MS); details: phocaeicola dorei, 2 µM
[3] = segatella copri, 12 h, 2 µM
Description: The drug is tested on Prevotella copri strain: DSM18205 for biotransformation. The drug concentrations were measured before and after a 12-h incubation by liquid-chromatography-coupled mass spectrometry (LC–MS)

[4] = bacteroides intestinalis, 12 h, 2 µM
Description: The drug is tested on Bacteroides intestinalis strain: DSM17393 for biotransformation. The drug concentrations were measured before and after a 12-h incubation by liquid-chromatography-coupled mass spectrometry (LC–MS)

[5] = The drug is tested on Bacteroides fragilis strain: HMW610 for biotransformation. The drug concentrations were measured before and after a 12-h incubation by liquid-chromatography-coupled mass spectrometry (LC–MS); details: 2 µM
[6] = The drug is tested on Blautia luti strain: DSM14534 for biotransformation. The drug concentrations were measured before and after a 12-h incubation by liquid-chromatography-coupled mass spectrometry (LC–MS); assay type: ADME; design: dose 2 uM, timepoint 0 vs 12 hours; details: 2 µM
[7] = The drug is tested on Bifidobacterium longum subsp. Infantis strain: CCUG52486 for biotransformation. The drug concentrations were measured before and after a 12-h incubation by liquid-chromatography-coupled mass spectrometry (LC–MS); details: 2 µM
[8] = The drug is tested on Ruminococcus gnavus strain: ATCC29149 for biotransformation. The drug concentrations were measured before and after a 12-h incubation by liquid-chromatography-coupled mass spectrometry (LC–MS); details: mediterraneibacter gnavus, 2 µM
[9] = anaerostipes sp., 12 h, 2 µM
Description: The drug is tested on Anaerostipes sp. strain: fecal isolate for biotransformation. The drug concentrations were measured before and after a 12-h incubation by liquid-chromatography-coupled mass spectrometry (LC–MS)

[10] = The drug is tested on Alistipes indistinctus strain: DSM22520 for biotransformation. The drug concentrations were measured before and after a 12-h incubation by liquid-chromatography-coupled mass spectrometry (LC–MS); details: 2 µM
[11] = The drug is tested on Bacteroides cellulosilyticus strain: DSM14838 for biotransformation. The drug concentrations were measured before and after a 12-h incubation by liquid-chromatography-coupled mass spectrometry (LC–MS); details: 2 µM
[12] = The drug is tested on Providencia stuartii strain: ATCC25827 for biotransformation. The drug concentrations were measured before and after a 12-h incubation by liquid-chromatography-coupled mass spectrometry (LC–MS); details: 2 µM
[13] = The drug is tested on Edwardsiella tarda strain: ATCC23685 for biotransformation. The drug concentrations were measured before and after a 12-h incubation by liquid-chromatography-coupled mass spectrometry (LC–MS); details: 2 µM
[14] = bacteroides thetaiotaomicron, 12 h, 2 µM
Description: The drug is tested on Bacteroides thetaiotaomicron strain: 3731 for biotransformation. The drug concentrations were measured before and after a 12-h incubation by liquid-chromatography-coupled mass spectrometry (LC–MS)

[15] = The drug is tested on Anaerotruncus colihominis strain: DSM17241 for biotransformation. The drug concentrations were measured before and after a 12-h incubation by liquid-chromatography-coupled mass spectrometry (LC–MS); details: 2 µM
[16] = The drug is tested on Bacteroides sp. WH2 strain: WH2 for biotransformation. The drug concentrations were measured before and after a 12-h incubation by liquid-chromatography-coupled mass spectrometry (LC–MS); details: bacteroides sp. wh2, 12 h, 2 µM
[17] = bacteroides fragilis, 12 h, 2 µM
Description: The drug is tested on Bacteroides fragilis strain: NCTC 9343 for biotransformation. The drug concentrations were measured before and after a 12-h incubation by liquid-chromatography-coupled mass spectrometry (LC–MS)

[18] = parabacteroides distasonis, 12 h, 2 µM
Description: The drug is tested on Parabacteroides distasonis strain: ATCC8503 for biotransformation. The drug concentrations were measured before and after a 12-h incubation by liquid-chromatography-coupled mass spectrometry (LC–MS)

[19] = The drug is tested on Bacteroides pectinophilus strain: ATCC43243 for biotransformation. The drug concentrations were measured before and after a 12-h incubation by liquid-chromatography-coupled mass spectrometry (LC–MS); details: 2 µM
[20] = The drug is tested on Clostridium sp. strain: fecal isolate for biotransformation. The drug concentrations were measured before and after a 12-h incubation by liquid-chromatography-coupled mass spectrometry (LC–MS); details: 2 µM

SMILES | Bacterial Biotransformation [1] | Bacterial Biotransformation [5] | Bacterial Biotransformation [6] | Bacterial Biotransformation [7] | Bacterial Biotransformation [8] | Bacterial Biotransformation [9] | Bacterial Biotransformation [10] | Bacterial Biotransformation [11] | Bacterial Biotransformation [12] | Bacterial Biotransformation [13] | Bacterial Biotransformation [14] | Bacterial Biotransformation [15] | Bacterial Biotransformation [16] | Bacterial Biotransformation [20] | Bacterial Biotransformation [2] | Bacterial Biotransformation [3] | Bacterial Biotransformation [4] | Bacterial Biotransformation [17] | Bacterial Biotransformation [18] | Bacterial Biotransformation [19]
CN(C)CCOC(C)(c1ccccc1)c1ccccn1.O=C(O)CCC(=O)O (centres undefined) [DOXYLAMINE SUCCINATE] | Compound NOT metabolized | Compound NOT metabolized | Compound NOT metabolized | Compound NOT metabolized | Compound NOT metabolized | Compound NOT metabolized | Compound NOT metabolized | Compound NOT metabolized | Compound NOT metabolized | Compound NOT metabolized | Compound NOT metabolized | Compound NOT metabolized | Compound NOT metabolized | – | Compound NOT metabolized | Compound NOT metabolized | Compound NOT metabolized | Compound NOT metabolized | Compound NOT metabolized | Compound NOT metabolized
CC(C)c1c(CN(C)C(C)Cc2ccccc2)n(C)n(-c2ccccc2)c1=O (centres undefined) [FAMPROFAZONE] | – | Compound metabolized | Compound NOT metabolized | Compound NOT metabolized | Compound NOT metabolized | Compound metabolized | Compound NOT metabolized | Compound metabolized | Compound NOT metabolized | Compound metabolized | Compound metabolized | – | Compound metabolized | – | Compound metabolized | Compound metabolized | Compound metabolized | Compound metabolized | Compound metabolized | Compound NOT metabolized
OCCN1CCN(CCCN2c3ccccc3Sc3ccc(C(F)(F)F)cc32)CC1 [FLUPHENAZINE] | Compound NOT metabolized | – | Compound NOT metabolized | Compound NOT metabolized | Compound NOT metabolized | Compound metabolized | Compound NOT metabolized | Compound metabolized | – | Compound NOT metabolized | Compound metabolized | – | Compound NOT metabolized | – | Compound metabolized | Compound metabolized | Compound metabolized | Compound metabolized | Compound metabolized | Compound NOT metabolized
Cc1ccc(NC(=O)c2ccc(CN3CCN(C)CC3)cc2)cc1Nc1nccc(-c2cccnc2)n1 [IMATINIB] | Compound NOT metabolized | Compound NOT metabolized | Compound NOT metabolized | – | Compound NOT metabolized | Compound NOT metabolized | Compound NOT metabolized | Compound NOT metabolized | Compound NOT metabolized | Compound NOT metabolized | Compound NOT metabolized | Compound NOT metabolized | Compound NOT metabolized | – | Compound NOT metabolized | Compound NOT metabolized | Compound NOT metabolized | – | Compound NOT metabolized | –
CN(C(=O)CN(CCO)CC(=O)N(C)C(C)(C)Cc1ccccc1)C(C)(C)Cc1ccccc1 [OXETHAZAINE] | Compound NOT metabolized | Compound NOT metabolized | Compound NOT metabolized | Compound NOT metabolized | Compound NOT metabolized | Compound NOT metabolized | Compound NOT metabolized | Compound NOT metabolized | Compound NOT metabolized | Compound NOT metabolized | Compound NOT metabolized | Compound NOT metabolized | Compound NOT metabolized | – | – | – | – | – | – | –

Now from value to compound, other results behind:

Bacterial Biotransformation [1] | Bacterial Biotransformation [5] | Bacterial Biotransformation [6] | Bacterial Biotransformation [7] | Bacterial Biotransformation [8] | Bacterial Biotransformation [9] | Bacterial Biotransformation [10] | Bacterial Biotransformation [11] | Bacterial Biotransformation [12] | Bacterial Biotransformation [13] | Bacterial Biotransformation [14] | Bacterial Biotransformation [15] | Bacterial Biotransformation [16] | Bacterial Biotransformation [20] | SMILES | Bacterial Biotransformation [2] | Bacterial Biotransformation [3] | Bacterial Biotransformation [4] | Bacterial Biotransformation [17] | Bacterial Biotransformation [18] | Bacterial Biotransformation [19]
Compound NOT metabolized | Compound NOT metabolized | Compound NOT metabolized | Compound NOT metabolized | Compound NOT metabolized | Compound NOT metabolized | Compound NOT metabolized | Compound NOT metabolized | Compound NOT metabolized | Compound NOT metabolized | Compound NOT metabolized | Compound NOT metabolized | Compound NOT metabolized | – | CN(C)CCC=C1c2ccccc2COc2ccccc21 [DOXEPIN] | Compound NOT metabolized | Compound NOT metabolized | Compound NOT metabolized | – | – | –
Compound NOT metabolized | Compound NOT metabolized | Compound NOT metabolized | Compound NOT metabolized | Compound NOT metabolized | Compound NOT metabolized | Compound NOT metabolized | Compound NOT metabolized | Compound NOT metabolized | Compound NOT metabolized | Compound NOT metabolized | Compound NOT metabolized | Compound NOT metabolized | – | COc1ccccc1OCC(O)COC(N)=O (centres undefined) [METHOCARBAMOL] | Compound NOT metabolized | Compound NOT metabolized | Compound NOT metabolized | Compound NOT metabolized | Compound NOT metabolized | –
Compound NOT metabolized | – | Compound NOT metabolized | Compound NOT metabolized | Compound NOT metabolized | Compound NOT metabolized | Compound NOT metabolized | Compound NOT metabolized | – | Compound NOT metabolized | Compound NOT metabolized | Compound NOT metabolized | Compound NOT metabolized | Compound metabolized | CN1C(=O)CC(C)(c2ccccc2)C1=O (centres undefined) [METHSUXIMIDE] | Compound metabolized | Compound NOT metabolized | Compound NOT metabolized | Compound NOT metabolized | – | –
Compound NOT metabolized | Compound NOT metabolized | Compound NOT metabolized | Compound NOT metabolized | Compound NOT metabolized | Compound NOT metabolized | Compound NOT metabolized | Compound NOT metabolized | Compound NOT metabolized | Compound NOT metabolized | Compound NOT metabolized | Compound NOT metabolized | Compound NOT metabolized | – | Cc1ccccc1C(OCCN(C)C)c1ccccc1.O=C(O)CC(O)(CC(=O)O)C(=O)O (centres undefined) [ORPHENADRINE CITRATE] | Compound NOT metabolized | Compound NOT metabolized | Compound NOT metabolized | – | Compound NOT metabolized | Compound NOT metabolized
